Test results from patent US8946266B2, “Substituted triazole and imidazole derivatives as gamma secretase modulators” (Janssen Pharmaceuticals, Inc., priority 2009, dated 2015).
pIC50: −log10 of the molar value. Like-named read-outs stand apart in the source and are kept apart here.

Assays:
Aβtotal = assay: γ-secretase-modulating activity, Method 2: Aβtotal Alphalisa in supernatant of SKNBE2 cells carrying APP 695-wild type (Table 3b); assay type: cell-based; settings: overnight, read-out: IC50 Aβtot
Method in brief: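 Secreted Aβtotal was quantified by AlphaLISA pairing an N-terminal antibody (JRF/AβN/25) with biotinylated mid-region 4G8. Wild-type APP 695 SKNBE2 cells received serially varied compound overnight at 37 °C; IC50 came from a 4-parameter nonlinear regression of percent of control against log dose.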

Aβ42 = assay: γ-secretase-modulating activity, Method 2: Aβ42 Alphalisa in supernatant of SKNBE2 cells carrying APP 695-wild type (Table 3b); assay type: cell-based; settings: overnight
Method in brief: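 Aβ42 in the supernatant was quantified by AlphaLISA sandwich (JRF/cAβ42/26 with JRF/AβN/25). Cells were wild-type APP695 SKNBE2, exposed to compound overnight at 37° C., 5% CO2. Data were normalised to untreated maximum and fitted with a four-parameter curve to give IC50.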

Structure (SMILES)	pIC50 (Aβtotal)	pIC50 (Aβ42)	pIC50 (Aβtotal; Homo sapiens)	pIC50 (Aβ42; Homo sapiens)
COc1cc(-c2nc(-c3cc(C(F)(F)F)ccc3C)n(C)n2)ccc1-n1cnc(C)c1 [Compound 72]	< 5.00	6.54		
CNc1nc(-c2ccc(-n3cnc(C)c3)c(OC)c2)nn1-c1cccc(C(F)(F)F)c1 [Compound 93]			< 5.00	6.55
COc1cc(-c2nc(N3CCC(c4ccccc4)CC3)n(C)n2)ccc1-n1cnc(C)c1 [Compound 77]	5.08	6.84		
COc1cc(-c2nc(Nc3cc(F)ccc3F)n(C)n2)ccc1-n1cnc(C)c1 [Compound 110]	< 5.00	7.04		
COc1cc(-c2nc(-c3ccc(F)cc3)n(C)n2)ccc1-n1cnc(C)c1 [Compound 40]	< 5.00	6.45		
COc1cc(-c2nc(Nc3cc(F)c(F)cc3Cl)n(C)n2)ccc1-n1cnc(C)c1 [Compound 121]	< 5.00	6.91		
COc1cc(-c2nc(Nc3cccc(F)c3)n(C)n2)ccc1-n1cnc(C)c1 [Compound 104]	5.08	6.94		
COc1cc(-c2nc(Nc3c(F)ccc(Br)c3F)n(C)n2)ccc1-n1cnc(C)c1 [Compound 127]	< 5.00	7.18		
COc1cc(-c2nc(NC3CCCC(C(F)(F)F)C3)n(C)n2)ccc1-n1cnc(C)c1 (stereo not drawn) [Compound 96]	< 5.00	6.47		
COc1cc(-c2nc(Nc3ccc(F)cc3)n(C)n2)ccc1-n1cnc(C)c1 [Compound 106]	< 5.00	6.88		
COc1cc(-c2ncn(-c3cccc(C(F)(F)F)c3)n2)ccc1-n1cnc(C)c1 [Compound 65]	< 5.00	5.65		
COc1cc(-c2nc(Nc3cc(F)cc(C(F)(F)F)c3)n(C)n2)ccc1-n1cnc(C)c1 [Compound 159]	< 5.00	7.68		
COc1cc(-c2n[nH]c(C3CCCCC3)n2)ccc1-n1cnc(C)c1 [Compound 33]	< 5.00	6.57		
COc1cc(-c2nc(N3CCOCC3)n(-c3ccc(F)cc3)n2)ccc1-n1cnc(C)c1 [Compound 71]			< 5.00	5.94
COc1cc(-c2nc(-c3ccccc3C(F)(F)F)n(C)n2)ccc1-n1cnc(C)c1 [Compound 38]	< 5.00	6.80		
Cc1cn(-c2ccc(-c3nc(Nc4ccc(F)cc4C(F)(F)F)n(C)n3)cc2)cn1 [Compound 149]	< 5.00	5.77		
COc1cc(-c2nc(Nc3cccc(Cl)c3Cl)n(C)n2)ccc1-n1cnc(C)c1 [Compound 119]	< 5.00	7.27		
COc1cc(-c2nc(Nc3cc(C(F)(F)F)ccc3F)n(C(C)C)n2)ccc1-n1cnc(C)c1 [Compound 178]	5.10	7.68		
COc1cc(-c2nc(NC3CCCCC3)n(C)n2)ccc1-n1cnc(C)c1 [Compound 94]	< 5.00	6.06		
COc1cc(-c2nc(-c3ccc(-n4cnc(C)c4)c(OC)c3)n(C)n2)ccc1Cl [Compound 58]	< 5.00	< 5.00		
COc1cc(-c2nc(-c3ccc(-n4cnc(C)c4)c(OC)c3)nn2C)ccc1Cl [Compound 43]	< 5.00	6.83		
COc1cc(-c2nc(Nc3ccc(F)cc3C(F)(F)F)n(C(C)C)n2)ccc1-n1cnc(C)c1 [Compound 49]	5.22	7.40		
COc1cc(-c2nc(N3CCc4ccccc4C3)n(C(C)C)n2)ccc1-n1cnc(C)c1 [Compound 82]	5.11	6.22		
COc1cc(-c2nc(Nc3cc(F)c(F)cc3I)n(C)n2)ccc1-n1cnc(C)c1 [Compound 120]	< 5.00	6.91		
COc1nc(-c2nc(Nc3ccc(F)c(C(F)(F)F)c3)n(C)n2)ccc1-n1cnc(C)c1 [Compound 171]	< 4.82	7.38		
COc1cc(-c2nc(Cc3ccc(F)cc3C(F)(F)F)n(C)n2)ccc1-n1cnc(C)c1 [Compound 46]	5.07	6.86		

Second part, the molecule after the results:

pIC50 (Aβtotal)	pIC50 (Aβ42)	pIC50 (Aβtotal; Homo sapiens)	pIC50 (Aβ42; Homo sapiens)	Structure (SMILES)
< 5.00	7.20			COc1cc(F)c(C(F)(F)F)cc1Nc1nc(-c2ccc(-n3cnc(C)c3)c(OC)c2)nn1C [Compound 220]
< 5.00	7.72			COc1ccc(Cl)c(Nc2nc(-c3ccc(-n4cnc(C)c4)c(OC)c3)nn2C)c1 [Compound 189]
< 5.00	6.83			COc1cc(-c2nc3n(n2)CCCC3c2ccccc2F)ccc1-n1cnc(C)c1 (stereo not drawn) [Compound 257]
< 5.00	6.75			COc1cc(Cl)ccc1Nc1nc(-c2ccc(-n3cnc(C)c3)c(OC)c2)nn1C [Compound 188]
		< 5.00	5.85	COc1cc(-c2nc(N(C(C)=O)c3cc(F)c(F)cc3I)n(C)n2)ccc1-n1cnc(C)c1 [Compound 232]
< 5.00	6.42			COc1cc(-c2nc3n(n2)CCOC3c2ccc(F)cc2F)ccc1-n1cnc(C)c1 (stereo not drawn) [Compound 282]
< 5.00	6.91			COc1cc(-c2nc3n(n2)CCCC3c2c(F)cc(F)cc2F)ccc1-n1cnc(C)c1 (stereo not drawn) [Compound 312]
< 5.00	6.63			COc1cc(-c2nc3n(n2)CCC[C@@H]3c2ccc(F)cc2C)ccc1-n1cnc(C)c1 [Compound 332]
6.07	5.51			COc1cc(-c2nc(C(=O)Nc3cccc(C(F)(F)F)c3)n(C)n2)ccc1-n1cnc(C)c1 [Compound 329]
5.11	7.92			COc1cc(-c2nc3n(n2)CCC[C@H]3c2cc(C(F)(F)F)ccc2C)ccc1-n1cnc(C)c1 [Compound 341]
5.10	7.47			COc1cc(-c2nc(Nc3cccc4c3OC(F)(F)O4)n(C)n2)ccc1-n1cnc(C)c1 [Compound 317]
5.30	7.72			CCC(C)n1nc(-c2ccc(-n3cnc(C)c3)c(OC)c2)nc1Nc1cc(C(F)(F)F)ccc1F (racemic) [Compound 179]
< 5.00	5.97			COc1cc(-c2nc(Nc3cc(S(C)(=O)=O)ccc3F)n(C)n2)ccc1-n1cnc(C)c1 [Compound 309]
< 5.00	7.46			COc1cc(-c2nc(Nc3cc(C(F)(F)F)cc(Cl)c3F)n(C)n2)ccc1-n1cnc(C)c1 [Compound 210]
< 5.00	6.88			COc1cc(-c2nc(Nc3ccnc(C(F)(F)F)c3)n(C)n2)ccc1-n1cnc(C)c1 [Compound 235]
< 5.00	7.60			COc1cc(Nc2nc(-c3ccc(-n4cnc(C)c4)c(OC)c3)nn2C)c(F)c(C(F)(F)F)c1 [Compound 202]
< 5.00	7.85			COc1ccc(C(F)(F)F)c(Nc2nc(-c3ccc(-n4cnc(C)c4)c(OC)c3)nn2C)c1 [Compound 218]
		< 5.00	6.58	COc1cc(-c2nc3n(n2)CCCC3(CO)c2ccc(F)cc2C)ccc1-n1cnc(C)c1 (stereo not drawn) [Compound 334]
< 4.82	6.74			Cc1cn(-c2ccc(-c3nc(Nc4ccccc4C(F)(F)F)n(C)n3)cc2C#N)cn1 [Compound 321]
< 5.00	6.80			COc1cc(-c2nc3n(n2)CCCC3c2ccc(F)cc2F)ccc1-n1cnc(C)c1 (stereo not drawn) [Compound 259]
< 5.00	7.55			COc1cc(Nc2nc(-c3ccc(-n4cnc(C)c4)c(OC)c3)nn2C)ccc1Cl [Compound 191]
5.02	7.28			COCCn1nc(-c2ccc(-n3cnc(C)c3)c(OC)c2)nc1Nc1cc(C(F)(F)F)ccc1F [Compound 209]
< 5.00	6.15			COc1cc(-c2nc3c(Nc4cccc(C(F)(F)F)c4)cccn3n2)ccc1-n1cnc(C)c1 [Compound 289]
< 5.00	6.85			COc1cc(-c2nc3n(n2)CCCC3c2ccc(C(F)(F)F)cc2)ccc1-n1cnc(C)c1 (stereo not drawn) [Compound 268]
< 5.00	6.41			COc1cc(-c2nc(Oc3ccccc3Cl)n(C)n2)ccc1-n1cnc(C)c1 [Compound 248]
